row,melting point,Structure (SMILES)
1,241 to 242 °C,CC(C)c1nccn1Cc1ccc2c(c1)Nc1nccnc1S2
2,264 to 266 °C,Cc1c(C(C)(C)O)ncn1Cc1ccc2c(c1)Nc1nccnc1S2
3,158 °C (dec.),O=C(O)C1CC2CCC(C1)N2Cc1ccc2c(c1)Nc1nccnc1S2 (stereo not shown)
4,220 °C (dec.),CN1CC2CN(Cc3ccc4c(c3)Nc3nccnc3S4)CC(C1)C2CC(=O)O (stereo not shown)
5,182 to 185 °C,CC(C)(O)CC1C2CCCC1CN(Cc1ccc3c(c1)Nc1nccnc1S3)C2 (stereo not shown)
6,88 to 92 °C,CC(CO)C1C2CCCC1CN(Cc1ccc3c(c1)Nc1nccnc1S3)C2 (stereo not shown)
7,189 to 192 °C,COCc1ccc2c(c1)Nc1nccnc1S2
8,222 to 223 °C,C#CC/N=C(\N)Cc1ccc2c(c1)Nc1nccnc1S2.Cl
9,> 260 °C (dec.),N/C(Cc1ccc2c(c1)Nc1nccnc1S2)=N\S(N)(=O)=O
10,268 to 269 °C,CC(=O)N1CCN(C(=N)Cc2ccc3c(c2)Nc2nccnc2S3)CC1.Cl
11,233 to 234 °C (dec.),CNC(Cc1ccc2c(c1)Nc1nccnc1S2)=NC#N
12,275 to 277 °C,CC(=NC#N)NCc1ccc2c(c1)Nc1nccnc1S2
13,246 to 248 °C,N#CN=C(N)NCc1ccc2c(c1)Nc1nccnc1S2
14,127 to 129 °C,COC(=O)CC1C2CCCC1CN(Cc1ccc3c(c1)Nc1nccnc1S3)C2 (stereo not shown)
15,132 to 135 °C,OCCCCC1CCN(Cc2ccc3c(c2)Nc2nccnc2S3)CC1
16,287 to 288 °C,NC(=O)C1CCN(Cc2ccc3c(c2)Nc2nccnc2O3)CC1
17,260 to 261 °C,O=c1ccccn1Cc1ccc2c(c1)Nc1nccnc1S2
18,> 275 °C,O=c1ccn(Cc2ccc3c(c2)Nc2nccnc2S3)cc1
19,233 to 235 °C,O=C1C=CN(Cc2ccc3c(c2)Nc2nccnc2S3)CC1
20,209 to 211 °C,NC(=O)C1CCCCN1Cc1ccc2c(c1)Nc1nccnc1S2 (stereo not shown)

row,melting point,Structure (SMILES)
1,212 to 214 °C,CS(=O)(=O)/N=C/N1CCN(Cc2ccc3c(c2)Nc2nccnc2S3)CC1
2,208 to 210 °C,CNS(=O)(=O)N1CCN(Cc2ccc3c(c2)Nc2nccnc2S3)CC1
3,204 to 209 °C,CS(=O)(=O)/N=C(\N)C1CCN(Cc2ccc3c(c2)Nc2nccnc2S3)CC1
4,199 to 201 °C,O=S(=O)(NC1CCN(Cc2ccc3c(c2)Nc2nccnc2S3)CC1)C(F)(F)F
5,159 to 162 °C,O=C1OCCC1=C1CCN(Cc2ccc3c(c2)Nc2nccnc2S3)CC1
6,182 to 185 °C,OCC(O)C1CCN(Cc2ccc3c(c2)Nc2nccnc2S3)CC1 (stereo not shown)
7,142 to 143 °C,CON=C1CCN(Cc2ccc3c(c2)Nc2nccnc2S3)CC1
8,285 to 288 °C (dec.),Nc1c(N2CCN(Cc3ccc4c(c3)Nc3nccnc3S4)CC2)c(=O)c1=O
9,192 to 195 °C,OC1CC2CN(Cc3ccc4c(c3)Nc3nccnc3S4)CC2C1 (stereo not shown)
10,57 to 60 °C,OCCC12CCN(Cc3ccc4c(c3)Nc3nccnc3S4)CC1C2 (stereo not shown)
11,238 to 241 °C (dec.),N#CN=CN1CCN(Cc2ccc3c(c2)Nc2nccnc2S3)CC1
12,158 to 161 °C,c1cnc2c(n1)Nc1cc(CN3CCC3)ccc1S2
13,182 to 184 °C,c1cnc2c(n1)Nc1cc(CN3CCc4sccc4C3)ccc1S2
14,195 to 198 °C,CNS(=O)(=O)CCC1CCN(Cc2ccc3c(c2)Nc2nccnc2S3)CC1
15,226 to 230 °C (dec.),O=C(CN1CCC(C(=O)O)CC1)NCc1ccc2c(c1)Nc1nccnc1S2
16,215 to 220 °C,O=C(O)CC1CC(C2CCN(Cc3ccc4c(c3)Nc3nccnc3S4)CC2)C1 (stereo not shown)
17,114 to 116 °C,N#CC(CCC(=O)O)=C1CCN(Cc2ccc3c(c2)Nc2nccnc2S3)CC1
18,216 to 220 °C,O=C(O)/C=C1/CCCN(Cc2ccc3c(c2)Nc2nccnc2S3)C1
19,242 to 244 °C,O=C(O)C1CCN(Cc2ccc3c(c2)Nc2nccnc2O3)CC1
20,265 to 268 °C,O=C(O)c1ccc(C2CCN(Cc3ccc4c(c3)Nc3nccnc3S4)CC2)cc1

row,melting point,Structure (SMILES)
1,174 to 176 °C,COc1ccc(C2CCN(Cc3ccc4c(c3)Nc3nccnc3S4)CC2)cc1CC(=O)O
2,240 to 242 °C,O=C(O)CCC(=O)N1CCN(Cc2ccc3c(c2)Nc2nccnc2S3)CC1
3,181 to 183 °C,O=C(O)C1CN(Cc2ccc3c(c2)Nc2nccnc2S3)C1
4,225 to 226 °C,CCC1(CC(=O)O)CCN(Cc2ccc3c(c2)Nc2nccnc2S3)CC1
5,238 to 241 °C,O=C(O)C=C1CC2(CCN(Cc3ccc4c(c3)Nc3nccnc3S4)CC2)C1
6,> 275 °C,O=C(O)C1C2CN(Cc3ccc4c(c3)Nc3nccnc3S4)CC21 (stereo not shown)
7,163 °C (dec.),O=C(O)C(F)C1CCN(Cc2ccc3c(c2)Nc2nccnc2S3)CC1 (stereo not shown)
8,200 °C (dec.),CC1CN(Cc2ccc3c(c2)Nc2nccnc2S3)CC(C)C1CC(=O)O (stereo not shown)
9,145 °C (dec.),O=C(O)CC1CCC2(CC1)CN(Cc1ccc3c(c1)Nc1nccnc1S3)C2
10,225 to 230 °C,O=C(O)Cc1ccc(OCC2CCN(Cc3ccc4c(c3)Nc3nccnc3S4)CC2)cc1
11,229 to 230 °C (dec.),CC(CCC1CCN(CCc2ccc3c(c2)Nc2nccnc2S3)CC1)C(=O)O (stereo not shown)
12,148 to 152 °C,O=C(O)CSC1CCN(Cc2ccc3c(c2)Nc2nccnc2S3)CC1
13,253 to 255 °C,O=C(O)C=C1C2CCCC1CN(Cc1ccc3c(c1)Nc1nccnc1S3)C2
14,180 to 185 °C,CC(C)(CCC1CCN(Cc2ccc3c(c2)Nc2nccnc2S3)CC1)C(=O)O
15,218 to 220 °C,CC(CC(=O)O)C1CCN(Cc2ccc3c(c2)Nc2nccnc2S3)CC1 (stereo not shown)
16,262 to 264 °C,O=C(O)C1CCN(CCCc2ccc3c(c2)Nc2nccnc2S3)CC1
17,94 to 98 °C,CC(CCC1CCN(C(=O)NCc2ccc3c(c2)Nc2nccnc2S3)CC1)C(=O)O (stereo not shown)
18,158 to 161 °C,O=C(O)c1ccc(CC2CCN(Cc3ccc4c(c3)Nc3nccnc3S4)CC2)cc1
19,110 to 113 °C,O=C(O)CSCC1CCN(Cc2ccc3c(c2)Nc2nccnc2S3)CC1
20,173 to 175 °C,c1cnc2c(n1)Nc1cc(CNCC3CCNCC3)ccc1S2

# Second part, the compound before the results:
row,Structure (SMILES),melting point
1,O=C(c1ccccn1)c1nccn1Cc1ccc2c(c1)Nc1nccnc1S2,191 to 193 °C
2,c1cc(-c2cn(Cc3ccc4c(c3)Nc3nccnc3S4)cn2)ccn1,157 to 158 °C
3,CCOC(=O)/C=C/c1nccn1Cc1ccc2c(c1)Nc1nccnc1S2,213 to 215 °C
4,CS(=O)(=O)NCCc1cn(Cc2ccc3c(c2)Nc2nccnc2S3)cn1,173 to 176 °C
5,CS(=O)(=O)N=CNc1ccc(-c2cn(Cc3ccc4c(c3)Nc3nccnc3S4)cn2)cc1,159 to 162 °C
6,c1cn(CCCc2ccc3c(c2)Nc2nccnc2S3)cn1,139 to 141 °C
7,O=c1c2ccccc2[nH]n1Cc1ccc2c(c1)Nc1nccnc1S2,> 275 °C
8,FC(F)(c1cccnc1)c1ccc2c(c1)Nc1nccnc1S2,183 to 184 °C
9,O=C(O)CSc1ccc(C(O)c2ccc3c(c2)Nc2nccnc2S3)cn1 (stereo not shown),65 to 70 °C
10,CS(=O)(=O)NC(=O)Cc1ccc2c(c1)Nc1nccnc1S2,236 to 238 °C
11,c1cnc2c(n1)Nc1cc(Cn3cnc4cncnc43)ccc1S2,264 to 265 °C
12,c1cnc2c(n1)Nc1cc(Cn3cnc4ncncc43)ccc1S2,277 to 280 °C
13,Cc1nc2c(nc(C)n2Cc2ccc3c(c2)Nc2nccnc2S3)c(=O)[nH]1,206 to 211 °C
14,CN(C)c1ncnc2c1[nH]c(=O)n2Cc1ccc2c(c1)Nc1nccnc1S2,> 280 °C
15,Cc1nc2ncncc2n1Cc1ccc2c(c1)Nc1nccnc1S2,> 275 °C
16,CN1CCN(c2ncnc3c2ncn3Cc2ccc3c(c2)Nc2nccnc2S3)CC1,197 to 202 °C
17,O=C(O)CCCCCCCCCCSc1ncnc2ncn(Cc3ccc4c(c3)Nc3nccnc3S4)c12,166 to 170 °C
18,CCOC(=O)CCCCCSc1ncnc2c1ncn2Cc1ccc2c(c1)Nc1nccnc1S2,78 to 79 °C
19,N#Cc1ccc2c(c1)Nc1nccnc1S2,263 to 264 °C
20,CN(C)S(=O)(=O)NC1CN=C(Cc2ccc3c(c2)Nc2nccnc2S3)NC1 (stereo not shown),251 to 254 °C
21,CCOC(=O)CCCNC(Cc1ccc2c(c1)Nc1nccnc1S2)=NC#N,154 to 155 °C
22,N/C(=N\[N+](=O)[O-])NCc1ccc2c(c1)Nc1nccnc1S2,226 to 228 °C

row,Structure (SMILES),melting point
1,CS(=O)(=O)/N=C(\N)NCc1ccc2c(c1)Nc1nccnc1S2,244 to 245 °C
2,O=c1ccn(Cc2ccc3c(c2)Nc2ccncc2S3)cc1,168 °C (dec.)
3,CNS(=O)(=O)NC1CCN(Cc2ccc3c(c2)Nc2nccnc2O3)CC1,219 to 222 °C
4,COCN1c2cc(C(=O)OC)ccc2Sc2nccnc21,151 to 152 °C
5,O=C([O-])C12CC[N+](Cc3ccc4c(c3)Nc3nccnc3S4)(CC1)CC2,229 to 230 °C
6,COCN1c2cc(CCl)ccc2Sc2nccnc21,125 to 126 °C
7,c1ccc(CN2c3ccccc3Nc3nccnc32)cc1,194 to 196 °C
8,CN1c2ccc(I)cc2Nc2nccnc21,> 275 °C
9,COCN1c2ccc(OC)cc2Nc2nccnc21,244 to 251 °C
10,CN1c2cc(O)ccc2Nc2nccnc21,> 275 °C
11,CN1c2cc(C#N)ccc2Nc2nccnc21,> 275 °C
12,CCOC(=O)/C=C/c1ccc2c(c1)Nc1nccnc1N2C,190 to 191 °C
13,OC/C=C/CN1c2ccccc2Nc2nccnc21,197 to 199 °C
14,CC(=O)NCc1ccc2c(c1)Nc1nccnc1N2C,247 to 249 °C
15,CCOC(=O)C#Cc1ccc2c(c1)Nc1nccnc1N2C,232 to 235 °C
16,Cc1cccc2c1Sc1nccnc1N2,165 to 166 °C
17,c1ccc(NCc2ccc3c(c2)Nc2nccnc2S3)nc1,208 to 212 °C
18,Cc1cc(NCc2ccc3c(c2)Nc2nccnc2S3)cc(C)n1,230 to 235 °C
19,CC(C)Oc1ccc(NCc2ccc3c(c2)Nc2nccnc2S3)cn1,145 to 148 °C
20,OCCc1ccc(NCc2ccc3c(c2)Nc2nccnc2S3)cn1,138 to 142 °C
21,CCOC(=O)CSc1ccc(NCc2ccc3c(c2)Nc2nccnc2S3)cn1,118 to 122 °C

# From patent US6518423B1, “Benzopiperidine derivatives” (Eisai Co., Ltd., priority 1996, dated 2003)
